Structures can show the parent of a compound that is named as a salt.
Target: T1, rat histamine H3 receptors (Rattus norvegicus, UniProt Q9QYN8)
T1 construct: Frozen rat frontal brain or frozen human post-mortem frontal brain is homogenized; from tissue; host or cells: rat frontal brain membranes
Assay: Rat Histamine H3 Receptor Binding
Settings: rat frontal brain membranes; radioligand 3H-N-methyl-histamine 1 nM; 1 hour incubation; read-out: rH3 Ki
Method: The in vitro affinity of the compounds in the present invention at the rat or human histamine H3 receptors can be determined according to the following procedure. Frozen rat frontal brain or frozen human post-mortem frontal brain is homogenized in 20 volumes of cold 50 mM Tris HCl containing 2 mM MgCl2 (pH to 7.4 at 4° C.). The homogenate is then centrifuged at 45,000 G for 10 minutes. The supernatant is decanted and the membrane pellet resuspended by Polytron in cold 50 mM Tris HCl containing 2 mM MgCl2 (pH to 7.4 at 4° C.) and centrifuged again. The final pellet is resuspended in 50 mM Tris HCl containing 2 mM MgCl2 (pH to 7.4 at 25° C.) at a concentration of 12 mg/mL. Dilutions of compounds are made in 10% DMSO/50 mM Tris buffer (pH 7.4) (at 10× final concentration, so that the final DMSO concentration is 1%). Incubations are initiated by the addition of membranes (200 microliters) to 96 well V-bottom polypropylene plates containing 25 microliters of drug dilutions and 25 microliters of radioligand (1 nM final concentration 3H—N-methyl-histamine). After a 1 hour incubation, assay samples are rapidly filtered through Whatman GF/B filters and rinsed with ice-cold 50 mM Tris buffer (pH 7.4) using a Skatron cell harvester. Radioactivity is quantified using a BetaPlate scintillation counter. The percent inhibition of specific binding can then be calculated.

T1 sequence (Q9QYN8 whole entry): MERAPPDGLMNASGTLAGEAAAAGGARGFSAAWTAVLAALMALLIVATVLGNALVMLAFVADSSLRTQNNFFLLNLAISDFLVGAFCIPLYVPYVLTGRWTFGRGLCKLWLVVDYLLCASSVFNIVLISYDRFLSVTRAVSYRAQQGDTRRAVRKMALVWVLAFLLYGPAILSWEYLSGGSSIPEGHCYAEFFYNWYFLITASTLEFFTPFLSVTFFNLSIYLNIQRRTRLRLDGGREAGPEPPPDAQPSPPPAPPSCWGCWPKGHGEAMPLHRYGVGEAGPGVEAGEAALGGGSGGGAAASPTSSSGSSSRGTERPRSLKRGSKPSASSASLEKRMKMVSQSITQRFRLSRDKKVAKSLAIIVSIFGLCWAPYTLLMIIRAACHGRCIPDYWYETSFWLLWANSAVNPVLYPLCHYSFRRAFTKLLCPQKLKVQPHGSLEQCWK

Row | SMILES | Ki [µM]
1 | CC(C)CNC(=O)C1CC(F)(c2cc(Cl)c(CN3CCCC3)cc2F)C1 (mixture of isomers) [Example 11, 3-(5-Chloro-2-fluoro-4-pyrrolidin-1-ylmethyl-phenyl)-3-fluoro-cyclobutanecarboxylic acid isobutyl-amide] | 0.0241
2 | CN(CC1CC1)C(=O)C1CC(F)(c2ccc(CN3CCCC3)c(Cl)c2)C1 (mixture of isomers) [Example 50, 3-(3-Chloro-4-pyrrolidin-1-ylmethyl-phenyl)-3-fluoro-cyclobutanecarboxylic acid cyclopropylmethyl-methyl-amide] | 0.0323
3 | O=C(C1CC(F)(c2ccc(CN3CCCC3)c(F)c2)C1)N1CCCC1 (stereo not drawn) [Example 9, N-{2-fluoro-4-[1-fluoro-3-(pyrrolidin-1-ylcarbonyl)cyclobutyl]benzyl}-pyrrolidine hydrochloride] | 0.0189
4 | CCNC(=O)C1CC(F)(c2ccc(CN3CCCC3)c(F)c2)C1 (stereo not drawn) [Example 16, 3-Fluoro-3-(3-fluoro-4-pyrrolidin-1-ylmethyl-phenyl)-cyclobutanecarboxylic acid ethylamide] | 0.0207
5 | CCN(C)C(=O)C1CC(F)(c2ccc(CN3CCCC3)c(F)c2)C1 (stereo not drawn) [Example 23, 3-Fluoro-3-(3-fluoro-4-pyrrolidin-1-ylmethyl-phenyl)-cyclobutanecarboxylic acid ethyl-methyl-amide] | 0.0288
6 | CCNC(=O)C1CC(F)(c2ccc(CN3CCC[C@@H]3C)c(F)c2)C1 (stereo partly drawn) [Example 59, 3-Fluoro-3-[3-fluoro-4-((S)-2-methyl-pyrrolidin-1-ylmethyl)-phenyl]-cyclobutanecarboxylic acid ethylamide] | 0.0214

Molecules with a lower Ki, results first:

Row | Ki [µM] | SMILES
7 | 0.0109 | O=C(NCC1CC1)C1CC(F)(c2ccc(CN3CCCC3)c(Cl)c2)C1 (stereo not drawn) [Example 46, 3-(3-Chloro-4-pyrrolidin-1-ylmethyl-phenyl)-3-fluoro-cyclobutanecarboxylic acid cyclopropylmethyl-amide]
8 | 0.0101 | CC(C)CNC(=O)C1CC(F)(c2ccc(CN3CCCC3)c(F)c2)C1 (single isomer, unassigned) [Example 55, 3-Fluoro-3-(3-fluoro-4-pyrrolidin-1-ylmethyl-phenyl)-cyclobutanecarboxylic acid isobutyl-amide]
9 | 0.0101 | CCNC(=O)C1CC(c2ccc(CN3CCCC3)c(F)c2)C1 (stereo not drawn) [Example 13, 3-(3-Fluoro-4-pyrrolidin-1-ylmethyl-phenyl)-cyclobutanecarboxylic acid ethylamide]

Source: patent US8389743B2, “Histamine-3 receptor antagonists” (Pfizer Inc., priority 2005, dated 2013)
